The subject of one series is Vero cells. Description: XTT cytotoxicity, Vero cells. The class given is cell-based, African green monkey. On the technique in general: Formazan colour is commonly taken as a measure of viable cells.
The test system of the next series is HSV-1. Description: Anti-HSV-1 assay (XTT). The class given is cell-based, herpes simplex virus type 1. To be noted: Human alphaherpesvirus 1; HSV-1 in Vero cells. From the text: Anti-Herpes Simplex Type 1 Virus (HSV-1).
(§1) Determination of antiviral activity and cytotoxicity.

Another series concerns AD38 cells. Description: XTT cytotoxicity, AD38 cells. Type of series: cell-based. The settings on record: AD38, HBV assay. The method, then:
as §1
(§2) Anti-HBV evaluation. […] The test compound was serially diluted in the RPMI/FBS medium and added to the wells in triplicate (with six wells receiving medium alone as a virus only control). The plate was incubated for 6 days, with a change in medium (+/- compound) on Day 3. Supernatant (100 µL) was collected from each well for analysis of viral DNA by qPCR as described below and cytotoxicity was evaluated by XTT staining of the cell culture monolayer on the sixth day as described above.

The subject of another series is HBV. Description: Anti-HBV evaluation (qPCR of HBV DNA). The class given is cell-based. The settings on record: Hepatitis B virus; HBV in AD38 cells. The procedure: as §2
Quantitative PCR detection of HBV DNA. Cell culture supernatant (10 µL) was diluted in qPCR dilution buffer (40 µg/mL sheared salmon sperm DNA) and boiled for 15 min. Quantitative real time PCR was performed in […] using an Applied Biosystems 7900HT Sequence Detection System and the supporting SDS 2.4 software. Samples (5 µL boiled DNA) and DNA standards were subjected to real time qPCR using Platinum Quantitative PCR SuperMix-UDG (Invitrogen) and specific DNA oligonucleotide primers (IDT, Coralville, […]) HBV-AD38-qF1 (5’-[…] -3’), HBV-AD38-qR1 (5’-AGT CCA AGA GTY CTC TTA TRY AAG ACC TT-3’), and HBV-AD38-qP1 (5’-FAM-CCG TGT GCA/ZEN/[…] -3’BHQ1) at a final concentration of 0.2 µM for each primer in a total reaction volume of 15 µL. […]
On the technique in general: Quantitative PCR measures a nucleic acid by following its amplification.

For the next series, the system named is CoV. Description: Anti-coronavirus assay (XTT). Type of series: cell-based. To be noted: MRC5; CoV in MRC-5 cells.
Text: as §1

The subject of a further series is Zika. Description: Anti-Zika virus assay (XTT). The class given is cell-based. The settings on record: Zika in Vero cells.
Text: Anti-Zika Virus (Zika). […] Monolayers were approximately 70% confluent for the assay. Zika virus strain MR766 was obtained from ATCC (VR-84) and a stock virus pool was produced in LLCMK2 cells.
as §1

For another series, the system named is AdV. Description: Anti-adenovirus assay (XTT). Type of series: cell-based. The settings on record: unidentified adenovirus; AdV in HeLa cells.
Text: as §1

The next series relates to HRV. Description: Anti-human rhinovirus assay (XTT). The settings on record: Human rhinovirus sp.; HRV in H1-HeLa cells. Type of series: cell-based.
Text: (§3) Anti-Human Rhinovirus (HRV).
as §1

For another series, the system named is HeLa cells. Description: XTT cytotoxicity, HeLa cells. Type of series: cell-based. To be noted: AdV assay.
In a further series the test system is H1-HeLa cells. Description: XTT cytotoxicity, H1-HeLa cells. Type of series: cell-based. To be noted: HRV assay.
Text: as §3, §1

A further series concerns MRC-5 cells. Description: XTT cytotoxicity, MRC-5 cells. The settings on record: MRC-5, CoV assay. Type of series: cell-based.
Text: as §1

Another series relates to Flu A. Description: Anti-influenza A assay (XTT). To be noted: Influenza A virus; Flu A in MDCK cells. The class given is cell-based, influenza virus type A.
Another series concerns Flu B. Description: Anti-influenza B assay (XTT). To be noted: Influenza B virus; Flu B in MDCK cells. Type of series: cell-based, influenza virus type B.
Text: Anti-Influenza Type A and B Virus (Flu A & B). […] The influenza A/PR/8/34 (VR-95) and influenza B/Allen/45 (VR-102) was obtained from ATCC and a stock virus pool was produced in MDCK cells.
as §1

Series [1] has as its system granulocyte macrophage (GM) human bone marrow progenitor cells. Description: Bone marrow progenitor cell inhibition assay, GM. Type of series: cell-based. To be noted: 14 days.
The subject of another series is CEM-SS cells. Description: XTT cytotoxicity, CEM-SS cells. The class given is cell-based. The settings on record: HIV-1 assay.
For series [2], the system named is erythroid (E) human bone marrow progenitor cells. Description: Bone marrow progenitor cell inhibition assay, E. Type of series: cell-based. To be noted: 14 days. From the text:
Bone marrow progenitor cell inhibition assays. […] The resulting number of colonies (greater than 30 cells) were compared to control wells to determine the extent of cytotoxicity.

The subject of another series is HIV-1. Description: Anti-HIV-1 assay (XTT). The class given is cell-based, human immunodeficiency virus type 1. To be noted: Human immunodeficiency virus 1; HIV-1 in CEM-SS cells. The method, then: Anti-Human Immunodeficiency Virus (HIV-1). CEM-SS cells were obtained from the NIH AIDS Research and Reference Reagent Program (Manassas, VA), resuspended at 5x10^4 cells per mL and 50 µL added to the microtiter plate wells. The lymphocyte-tropic virus strain HIV-1RF (obtained from the NIH AIDS Research and Reference Reagent Program and grown in CEM-SS cells for stock virus pools) was used for the assay.
as §1

As a reminder, the pEC50 is the negative decadic logarithm of the EC50, by convention in mol/L.

pEC50: −log10 of the molar value. Structures can show the parent of a compound that is named as a salt. Where two headings read alike, the source gives them in different places. A value given as a limit tells only on which side of the number the result lay.

With `Nc1nc2c(ncn2COCCO)c(=O)[nH]1` [Acyclovir], the TC50 in the series with Vero cells (HSV-1 assay) was >100000 nM. Also, the pEC50 in the series with HSV-1 was 5.75.

For `CC(C)OC(=O)OCOP(=O)(CO[C@H](C)Cn1cnc2c(N)ncnc21)OCOC(=O)OC(C)C` [TDF, tenofovir disoproxil fumarate], in the series on AD38 cells, the TC50 was >1000 nM. For the same compound, the pEC50 with HBV is 6.64.

With `NC(=O)c1ncn([C@@H]2O[C@H](CO)[C@@H](O)[C@H]2O)n1` [Ribavirin], the pEC50 was 5.41 in the series with CoV, 5.25 in the series on Zika, 6.12 with AdV and 4.77 in the series on HRV. Besides, the TC50 with HeLa cells is 11700 nM; with H1-HeLa cells it was 40600 nM; in the series with MRC-5 cells it was >100000 nM; with Vero cells (Zika assay) it was 38800 nM.

With `CCOC(=O)C1=C[C@@H](OC(CC)CC)[C@H](NC(C)=O)[C@@H](N)C1` [Oseltamivir], the results for the pEC50 with Flu A and in the series with Flu B were 6.80 and 6.38, respectively. Besides, the TC50 in the series on MDCK cells (Flu A assay) and in the series on MDCK cells (Flu B assay) was >10000 nM throughout.

With `Cc1cn([C@H]2C[C@H](N=[N+]=[N-])[C@@H](CO)O2)c(=O)[nH]c1=O` [Zidovudine], the figures for the TC50 (in series [1]; in the series with CEM-SS cells; in series [2]) were 1000 nM, >500 nM and 2000 nM, respectively. The compound also gave a pEC50 with HIV-1 of 8.40.

For the origin of these results see paper PMC6949113, “Preclinical evaluation of AT-527, a novel guanosine nucleotide prodrug with potent, pan-genotypic activity against hepatitis C virus” (PLoS ONE, 2020).
